From patent publication US20080234299A1, “Quinazolinones” (MERCK PATENT GMBH, priority 2005, published 2008)

Test system: cells
Assay: cell cycle experiments (G2/M)
Type: cell-based

SMILES: N=C(N)c1ccc(OCCCCCOc2ccc(C(=N)N)cc2)cc1 [pentamidine]
- effect on cell cycle: maintain cells in the G2/M cell cycle
